Data reported in PMC12155096 (International Journal of Molecular Sciences, 2025).
Structures can show the parent of a compound that is named as a salt. Where two headings read alike, the source gives them in different places.

Tests used:
[1] = biological target: T1, CYP3A4 (Homo sapiens, UniProt P08684)
[2] = biological target: Photinus pyralis (firefly) luciferase (Photinus pyralis, UniProt P08659); assay: biochemical; type: biochemical
[3] = biological target: T1, CYP3A4; assay: biochemical; settings: for AC50: CYP3A4 AC50 (half-maximal activity concentration); for IC50: CYP3A4 IC50 (half-maximal inhibitory concentration)
[4] = biological target: T2, human CYP2D6 (Homo sapiens, UniProt P10635); assay: biochemical; settings: for AC50: CYP2D6 AC50 (half-maximal activity concentration)
T2 sequence (P10635 whole entry): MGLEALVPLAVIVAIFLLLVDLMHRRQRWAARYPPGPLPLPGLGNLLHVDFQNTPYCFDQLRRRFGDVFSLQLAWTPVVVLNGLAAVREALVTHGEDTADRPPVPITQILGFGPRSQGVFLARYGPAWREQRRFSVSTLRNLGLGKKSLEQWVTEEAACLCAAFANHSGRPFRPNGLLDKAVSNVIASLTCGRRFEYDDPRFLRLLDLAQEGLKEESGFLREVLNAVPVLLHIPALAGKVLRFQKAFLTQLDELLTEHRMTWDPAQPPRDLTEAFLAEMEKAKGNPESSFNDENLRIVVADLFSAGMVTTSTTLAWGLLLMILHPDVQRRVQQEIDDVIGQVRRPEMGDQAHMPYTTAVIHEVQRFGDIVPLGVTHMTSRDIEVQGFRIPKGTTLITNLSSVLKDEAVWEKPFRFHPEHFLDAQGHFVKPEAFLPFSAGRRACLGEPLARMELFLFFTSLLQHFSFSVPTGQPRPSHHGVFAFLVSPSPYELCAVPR

[5] = biological target: T3, human CYP2C9 (Homo sapiens, UniProt P11712); assay: biochemical; settings: for AC50: CYP2C9 AC50 (half-maximal activity concentration)
T3 sequence (P11712 whole entry): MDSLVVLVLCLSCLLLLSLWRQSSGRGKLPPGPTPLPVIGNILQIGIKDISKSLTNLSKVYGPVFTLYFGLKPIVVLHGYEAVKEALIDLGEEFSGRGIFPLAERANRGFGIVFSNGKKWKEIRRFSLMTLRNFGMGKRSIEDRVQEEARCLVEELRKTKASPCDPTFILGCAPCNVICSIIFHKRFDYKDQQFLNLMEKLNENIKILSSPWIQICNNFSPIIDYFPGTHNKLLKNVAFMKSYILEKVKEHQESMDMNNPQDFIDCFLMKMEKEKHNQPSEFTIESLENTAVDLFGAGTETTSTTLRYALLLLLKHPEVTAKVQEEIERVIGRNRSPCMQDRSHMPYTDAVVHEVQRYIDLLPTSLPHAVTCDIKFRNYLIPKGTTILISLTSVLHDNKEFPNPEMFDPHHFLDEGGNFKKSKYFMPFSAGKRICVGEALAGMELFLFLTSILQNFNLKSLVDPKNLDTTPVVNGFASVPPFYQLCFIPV

[6] = biological target: T4, human CYP1A2 (Homo sapiens, UniProt P05177); assay: biochemical; settings: for AC50: CYP1A2 AC50 (half-maximal activity concentration)
T4 sequence (P05177 1-516): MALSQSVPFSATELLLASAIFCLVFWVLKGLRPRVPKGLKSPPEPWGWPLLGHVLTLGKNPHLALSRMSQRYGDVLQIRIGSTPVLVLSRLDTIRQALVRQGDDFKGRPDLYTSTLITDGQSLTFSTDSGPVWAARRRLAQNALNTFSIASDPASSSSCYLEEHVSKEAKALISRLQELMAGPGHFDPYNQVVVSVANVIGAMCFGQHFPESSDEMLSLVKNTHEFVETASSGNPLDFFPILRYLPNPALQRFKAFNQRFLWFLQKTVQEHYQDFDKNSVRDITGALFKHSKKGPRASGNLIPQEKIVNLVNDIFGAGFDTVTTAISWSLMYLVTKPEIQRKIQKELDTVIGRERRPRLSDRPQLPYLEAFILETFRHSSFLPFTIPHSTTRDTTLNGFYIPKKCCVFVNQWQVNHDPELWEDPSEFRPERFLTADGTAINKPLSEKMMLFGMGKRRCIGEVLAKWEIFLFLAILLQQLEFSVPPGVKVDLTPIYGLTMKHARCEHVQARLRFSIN

[7] = biological target: T5, human CYP2C19 (Homo sapiens, UniProt P33261); assay: biochemical; settings: for AC50: CYP2C19 AC50 (half-maximal activity concentration)
T5 sequence (P33261 whole entry): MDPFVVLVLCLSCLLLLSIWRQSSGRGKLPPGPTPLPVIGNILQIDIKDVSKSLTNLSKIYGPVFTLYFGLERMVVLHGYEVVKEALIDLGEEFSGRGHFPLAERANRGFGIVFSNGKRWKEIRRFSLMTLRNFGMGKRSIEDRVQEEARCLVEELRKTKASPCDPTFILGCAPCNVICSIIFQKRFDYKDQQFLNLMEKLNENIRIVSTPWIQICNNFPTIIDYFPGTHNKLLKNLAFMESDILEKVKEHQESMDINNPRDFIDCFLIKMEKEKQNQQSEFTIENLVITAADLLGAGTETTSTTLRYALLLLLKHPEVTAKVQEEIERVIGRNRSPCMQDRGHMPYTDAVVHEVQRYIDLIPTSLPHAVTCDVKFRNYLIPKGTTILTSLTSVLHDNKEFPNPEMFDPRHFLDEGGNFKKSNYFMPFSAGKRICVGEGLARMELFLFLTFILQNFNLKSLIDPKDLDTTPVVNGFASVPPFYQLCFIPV

[8] = biological target: T5, human CYP2C19; settings: for CYP2C19 Efficacy (in parenthesis): human
[9] = biological target: T2, human CYP2D6; settings: for CYP2D6 Efficacy (in parenthesis): human
[10] = biological target: T3, human CYP2C9
[11] = biological target: T4, human CYP1A2; settings: for CYP1A2 Efficacy (in parenthesis): human
[12] = CYP2D6 IC50 (half-maximal inhibitory concentration)
[13] = CYP2C9 IC50 (half-maximal inhibitory concentration)
[14] = CYP1A2 IC50 (half-maximal inhibitory concentration)
[15] = CYP2C19 IC50 (half-maximal inhibitory concentration)

T1 sequence (P08684 whole entry): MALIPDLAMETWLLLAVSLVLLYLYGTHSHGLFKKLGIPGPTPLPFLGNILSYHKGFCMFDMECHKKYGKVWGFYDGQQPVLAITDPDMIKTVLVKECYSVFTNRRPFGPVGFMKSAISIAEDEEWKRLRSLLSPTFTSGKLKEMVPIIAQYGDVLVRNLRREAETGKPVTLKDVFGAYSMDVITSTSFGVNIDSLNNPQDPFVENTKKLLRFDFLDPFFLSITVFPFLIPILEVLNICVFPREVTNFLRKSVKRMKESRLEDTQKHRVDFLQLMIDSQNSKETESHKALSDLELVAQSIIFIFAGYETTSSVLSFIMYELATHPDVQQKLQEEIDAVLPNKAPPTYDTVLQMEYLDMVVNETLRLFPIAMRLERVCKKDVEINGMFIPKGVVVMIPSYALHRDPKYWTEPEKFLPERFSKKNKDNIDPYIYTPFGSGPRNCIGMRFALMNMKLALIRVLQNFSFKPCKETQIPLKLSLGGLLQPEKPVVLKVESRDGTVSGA
Chain of Photinus pyralis (firefly) luciferase (P08659 whole entry): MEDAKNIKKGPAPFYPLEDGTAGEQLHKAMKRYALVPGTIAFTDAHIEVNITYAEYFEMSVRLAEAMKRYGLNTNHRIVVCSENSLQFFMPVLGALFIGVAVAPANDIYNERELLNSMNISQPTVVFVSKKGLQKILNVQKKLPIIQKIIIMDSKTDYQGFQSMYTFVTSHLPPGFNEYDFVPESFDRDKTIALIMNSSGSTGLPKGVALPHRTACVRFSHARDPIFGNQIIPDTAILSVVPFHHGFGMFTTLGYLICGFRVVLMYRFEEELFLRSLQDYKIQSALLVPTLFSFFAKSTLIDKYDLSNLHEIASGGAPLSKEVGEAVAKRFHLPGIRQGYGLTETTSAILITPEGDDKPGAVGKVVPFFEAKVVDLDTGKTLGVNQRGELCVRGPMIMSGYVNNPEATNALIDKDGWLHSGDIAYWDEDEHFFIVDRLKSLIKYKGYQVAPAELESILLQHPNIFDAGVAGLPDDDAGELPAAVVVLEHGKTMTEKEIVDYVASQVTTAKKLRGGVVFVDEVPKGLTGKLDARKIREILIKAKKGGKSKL

SMILES	CYP3A4 IC50 (half-maximal inhibitory concentration) [1]	AC50 [3]	AC50 [4]	IC50 [4, 12]	AC50 [5]	IC50 [5, 13]	AC50 [6]	IC50 [6, 14]	AC50 [7]	IC50 [7, 15]	CYP3A4 Efficacy (in parenthesis) [1]	CYP2C19 Efficacy (in parenthesis) [8]	CYP2D6 Efficacy (in parenthesis) [9]	Luciferase IC50 (half-maximal inhibitory concentration) [2]	IC50 [3]	CYP2C9 Efficacy (in parenthesis) ([10]; human)	CYP1A2 Efficacy (in parenthesis) [11]	further results
Cc1ccc2c(c1N)C(=O)c1ccccc1C2=O [1-Amino-2-methylanthraquinone]	0.32 ± 0.14 (91 ± 19) µM	0.32 µM	5.59 µM	5.59 µM	3.36 µM	3.36 µM	0.58 µM	0.58 µM	5.66 µM	5.66 µM	–	–	–	–	–	–	–	IC50 [2]: 5.87 µM
COc1c2ccoc2cc2oc(=O)ccc12 [5-Methoxypsoralen]	–	–	–	0.1 µM	–	2.43 µM	–	0.28 µM	–	10.3 µM	9.16 ± 1.5 (-71 ± 2) %	10.35 ± 3.33 (-151 ± 18) %	0.1 ± 0.02 (11 ± 2) %	Inactive	9.16 µM	2.43 ± 0.16 (-105 ± 2) %	0.28 ± 0.03 (-96 ± 3) %	–
CCN(CCCc1ccccc1)CCCc1ccccc1 [Alverine citrate]	–	14.4 µM	0.87 µM	–	–	–	9.92 µM	–	7.04 µM	–	–	–	–	–	–	–	–	CYP3A4 IC50 [1]: 14.43 ± 1.84 (65 ± 11) µM; Luciferase IC50 [2]: Inactive; IC50 ([4]; CYP2D6 IC50): 0.87 µM; CYP2C9 IC50 [10]: Inactive; IC50 ([6]; CYP1A2 IC50): 9.92 µM; IC50 ([7]; CYP2C19 IC50): 7.04 µM
Clc1ccc(C2(Cn3cncn3)OCCO2)c(Cl)c1 [Azaconazole]	–	–	–	65.8 µM	–	15.4 µM	–	33.1 µM	–	2.14 µM	0.48 ± 0.03 (-62 ± 7) %	2.14 ± 0.96 (-148 ± 8) %	65.83 ± 4.46 (-77 ± 14) %	Inactive	0.48 µM	15.38 ± 2.12 (-103 ± 8) %	33.14 ± 4.22 (-89 ± 9) %	–
CCOP(=S)(OCC)SCn1nnc2ccccc2c1=O [Azinphos-ethyl]	–	–	–	–	–	–	–	28.6 µM	–	0.32 µM	1.87 ± 0.34 (-77 ± 3) %	0.32 ± 0.06 (-141 ± 5) %	35.57 ± 0 (-87 ± 6) %	Inactive	1.87 µM	0.57 ± 0.11 (-97 ± 0) %	28.65 ± 6 (-88 ± 5) %	IC50 [4]: 35.6 µM; IC50 [5]: 0.57 µM
C=CCOC(=O)C(C)(C)OC(=O)c1cc(-n2c(=O)cc(C(F)(F)F)n(C)c2=O)ccc1Cl [Butafenacil]	–	–	–	27 µM	–	23.7 µM	–	35.1 µM	–	50 µM	0.51 ± 0.14 (-90 ± 4) %	50.02 ± 19.28 (-89 ± 23) %	26.96 ± 4.59 (-70 ± 7) %	Inactive	0.51 µM	23.68 ± 7.01 (-109 ± 17) %	35.06 ± 4.03 (-48 ± 4) %	–
CC(O)(c1ccc(Cl)cc1)c1ccc(Cl)cc1 [Chlorfenethol]	11.76 ± 1.5 (55 ± 6) µM	11.8 µM	55.5 µM	55.5 µM	7.68 µM	7.68 µM	30.6 µM	30.6 µM	0.12 µM	0.12 µM	–	–	–	Inactive	–	–	–	–
O=S(=O)(Oc1ccc(Cl)cc1)c1ccc(Cl)cc1 [Chlorfenson]	–	–	–	21.6 µM	–	18.8 µM	–	3.21 µM	–	0.14 µM	6.8 ± 1.64 (41 ± 6) %	0.14 ± 0.02 (-95 ± 43) %	21.56 ± 9.06 (-95 ± 15) %	Inactive	6.8 µM	18.81 ± 7.04 (-92 ± 16) %	3.21 ± 1.48 (-95 ± 14) %	–
CCOP(=O)(OCC)OC(=CCl)c1ccc(Cl)cc1Cl [Chlorfenvinphos]	1.18 ± 0.21 (70 ± 1) µM	1.18 µM	37 µM	–	31.9 µM	–	6.58 µM	6.58 µM	0.83 µM	0.83 µM	–	–	–	Inactive	–	–	–	IC50 [4]: 37 µM; IC50 [5]: 31.9 µM; IC50 ([7]; IC50 CYP2C19 assay): 0.77 µM
CCOC(=O)C(O)(c1ccc(Cl)cc1)c1ccc(Cl)cc1 [Chlorobenzilate]	9.23 ± 2.97 (118 ± 20) µM	9.23 µM	–	–	7.68 µM	–	44.5 µM	44.5 µM	0.39 µM	0.39 µM	–	–	–	Inactive	–	–	–	CYP2D6 AC50 (half-maximal activity concentration) [9]: Inconclusive inhibitor; IC50 [4]: 46.2 µM; IC50 [5]: 7.68 µM
N#Cc1c(Cl)c(Cl)c(Cl)c(C#N)c1Cl [Chlorothalonil]	–	–	–	34.9 µM	–	6.61 µM	–	1.03 µM	–	38.4 µM	1.11 ± 0.13 (-78 ± 2) %	38.42 ± 34.42 (-114 ± 10) %	34.91 ± 0 (-58 ± 3) %	Inactive	1.11 µM	6.61 ± 1.87 (-85 ± 10) %	1.03 ± 0.19 (-97 ± 4) %	–
CC(C1CC1)C(O)(Cn1cncn1)c1ccc(Cl)cc1 (stereo not drawn) [Cyproconazole]	–	–	–	38.3 µM	–	0.13 µM	–	30.4 µM	–	0.3 µM	0.97 ± 0.57 (-70 ± 7) %	0.3 ± 0.07 (-141 ± 28) %	38.25 ± 2.49 (-72 ± 6) %	Inactive	0.97 µM	0.13 ± 0.04 (-105 ± 6) %	30.37 ± 9.95 (-33 ± 2) %	–
CCC1COC(Cn2cncn2)(c2ccc(Cl)cc2Cl)O1 (stereo not drawn) [Etaconazole]	–	–	–	45.4 µM	–	5.71 µM	–	31.9 µM	–	0.32 µM	0.1 ± 0.01 (-79 ± 1) %	0.32 ± 0.04 (-137 ± 10) %	45.4 ± 9.51 (-42 ± 2) %	Inactive	0.1 µM	5.71 ± 1.07 (-109 ± 6) %	31.85 ± 3.66 (-69 ± 5) %	–
O=C1C(Cl)C(CCl)CN1c1cccc(C(F)(F)F)c1 (stereo not drawn) [Flurochloridone]	–	–	35.9 µM	35.9 µM	7.82 µM	–	1.04 µM	1.04 µM	12.3 µM	12.3 µM	6.98 ± 2.77 (42 ± 7) %	–	–	Inactive	6.98 µM	–	–	CYP2C9 IC50 (half-maximal inhibitory concentration) ([10]; human): 7.82 ± 1.95 (82 ± 14) µM
CCCCN1CCCC[C@H]1C(=O)Nc1c(C)cccc1C [Levobupivacaine hydrochloride]	–	–	–	0.57 µM	–	–	–	17.4 µM	–	–	9.59 ± 2.39 (-54 ± 7) %	–	0.57 ± 0.04 (-109 ± 3) %	Inactive	9.59 µM	–	17.38 ± 0 (-62 ± 5) %	CYP2C19 IC50 (half-maximal inhibitory concentration) [8]: Inactive; CYP2C9 IC50 (half-maximal inhibitory concentration) [10]: Inactive
ClC(c1ccccc1)(c1ccccc1)c1ccccc1 [Trityl chloride]	6.9 ± 1.18 (56 ± 3) µM	6.9 µM	–	62.1 µM	1.48 µM	1.48 µM	–	75.3 µM	0.26 µM	0.26 µM	–	–	–	Inactive	–	–	–	CYP2D6 AC50 (half-maximal activity concentration) [9]: Inconclusive inhibitor; CYP1A2 AC50 (half-maximal activity concentration) [11]: Inconclusive inhibitor
